According to patent US12042511B1, “Inhalation delivery methods and compositions for vitamin B12” (priority 2017, dated 2024):

How the values were obtained:
[1] = B12 blood levels after inhalation of methylcobalamin solution (vaporizer/electronic cigarette); format: in vivo, human
Protocol: A new method for vitamin B12 supplementation involves determining that a person has a disorder causing the person to have a reduced ability to process one or more forms of B-vitamins and convert them into a usable form in the body and administering methylcobalamin to the person in aerosol form or in water vapor, for inhalation. In some embodiments, the person is determined to have a MTHFR gene mutation. In some embodiments, the methylcobalamin is administered as part of a mixture also comprising vegetable glycerin and water. In some embodiments, the determined disorder includes anemia, pernicious anemia, and/or advanced age. In some embodiments, administering methylcobalamin involves administering at least 500 mcg of methylcobalamin in one day or in one week. For example, 500 mcg of methylcobalamin may be administered in a single daily or weekly dose. Depending on the concentration of the methylcobalamin in the solution used to administer the methylcobalamin, 500 mcg of methylcobalamin may be administered in 0.01 mL or more of solution. The concentration of methylcobalamin in solution for a vaporizer/electronic cigarette application in some embodiments is 1,000 mcg/mL or higher, in preferred embodiments 2,000 mcg/mL or higher. […]

[2] = bioavailability/absorption of methylcobalamin in inhalable form compared with other forms of B12; format: in vivo, human; conditions: persons with a methylenetetrahydrofolate reductase (MTHFR) genetic mutation
Protocol: When a person is determined to have MTHFR or another condition that causes the person to have a reduced ability to process B-vitamin supplements and convert them into a usable form in the body, the person may be administered methylcobalamin by inhalation for proper B12 supplementation.

In the case of `C/C1=C2/[N-][C@H]([C@H](CC(N)=O)[C@@]2(C)CCC(=O)NC[C@@H](C)OP(=O)([O-])O[C@H]2[C@@H](O)[C@@H](n3cnc4cc(C)c(C)cc43)O[C@@H]2CO)[C@]2(C)N=C(/C(C)=C3N=C(/C=C4N=C1[C@@H](CCC(N)=O)C\4(C)C)[C@@H](CCC(N)=O)[C@]\3(C)CC(N)=O)[C@@H](CCC(N)=O)[C@]2(C)CC(N)=O.[CH3-].[Co+3]` [methylcobalamin], the “levels of B12 in a user's blood” value ([1]; lower concentrations (below 1,000 mcg/mL) of methylcobalamin in solution) is reported as “no effect on the user's blood levels of B12”, the “levels of B12 in a user's blood” value ([1]; methylcobalamin concentration in solution 1,000 mcg/mL or higher, vaporizer/electronic cigarette, immediately after treatment (within about 5 minutes) and persistently) is reported as “substantially increasing levels of B12 in a user's blood” and the “absorption relative to other forms of B12” value [2] is reported as “more easily absorbed than other forms of B12”.
